# In patent US10344276B2, “Diagnostic and treatment for chronic and acute phase myeloid leukemia” (Duke University, priority 2009, dated 2019):
# Assays:
# [1] = system: blast crisis CML (AML) cells; test: Colony forming assay in methylcellulose media after Msi2 shRNA delivery; type: cell-based, mouse
# Experimental: Lineage negative, NUP98-HOXA9-YFP positive cells from AML were sorted and infected retrovirally with either Vector-IRES-GFP or Numb-IRES-GFP. After 48 hours of infection, cells were sorted and serially plated on complete methylcellulose medium (Methocult GF M3434 from StemCell Technologies).
# (§1) To determine if inhibiting Msi2 could impact the growth of established CML, and to rule out the possibility that the reduced incidence of leukemia in Gt mutants was due to developmental defects and examine if Msi2 knockdown affects AML maintenance, Msi expression was targeted using an alternate shRNA approach. A lineage-negative population was sorted from full blown AML cells, which contains AML stem cells. Lin− cells from NUP98-HOXA9/BCR-ABL-induced blast crisis leukemias were infected with either an shRNA retrovirus targeting Msi2 (shMsi; SEQ ID NO: 9) or firefly luciferase (shLuc; SEQ ID NO: 10) as a negative control and resorted, and Msi2 expression was analyzed by realtime RT-PCR. […] Error bars represent s.e.m. of triplicate PCRs (**p<0.01).
# As a control, shRNA against LacZ was used. Error bars represent s.e.m. of triplicate PCRs (**p<0.01). […] Error bars represent s.e.m. of triplicate assay wells (**p<0.01). […] Error bars represent s.e.m. of triplicate PCRs (**p<0.01).
# blast crisis CML / AML = test: Transplantation of shRNA-infected blast crisis CML/AML cells into irradiated mice; type: in vivo
# Excerpt: Mouse models of CML were generated by transducing bone marrow stem and progenitor cells with retroviruses carrying BCR-ABL (chronic phase), or BCR-ABL and NUP98-HOXA9 (blast crisis phase) and transplanted into irradiated recipient mice. The development of CML was confirmed by flow cytometry and histopathology. Transgenic Notch reporter (TNR), Rag1−/−, and C57BL6/J were used as transplant donors, and C57Bl6/J CD45.1 and CD1 mice were used as transplant recipients. All mice were 8-12 weeks of age. Mice were bred and maintained on acidified water after transplantation in the animal care facility at Duke University Medical Center. All live animal experiments were performed according to protocols approved by the Duke University Institutional Animal Care and Use Committee. For Msi2 knockdown experiments, lineage negative blast crisis CML cells were infected with Msi2 or control Luciferase shRNA retroviral constructs and leukemia incidence monitored.
# Bone marrow c-Kit+ or KLS cells from C57BL6/J or TNR mice were enriched and cultured overnight in X-vivo15 with 10% FBS, 50 μM 2-mercaptoethanol, 100 ng/mL SCF, and 20 ng/mL TPO in a 96 well U-bottom plate or 6 well plate. Subsequently, cells were infected with MSCV-BCR-ABL-IRES-YFP (or CFP) to generate CML, or MSCV-BCR-ABL-IRES-YFP (or CFP) and MSCV-NUP98-HOXA9-IRES-YFP (or NGFR) to generate AML. Cells were harvested 48 hours after infection and transplanted retro-orbitally into groups of 4-7 recipient mice. Recipients were lethally irradiated (10 Gy) for CML, and sublethally irradiated (7 Gy) for AML. For Numb overexpression, cells were infected with either MSCV-Numb-IRES-GFP (or hCD2) or MSCV-IRES-GFP (or hCD2) along with MSCV-BCR-ABL-IRES-YFP (or CFP) and MSCV-NUP98-HOXA9-IRES-NGFR (or YFP) and 20,000 to 100,000 sorted infected cells were transplanted per mouse. For secondary transplantation, cells from primary transplanted mice were sorted for either MSCV-Numb-IRES-GFP and MSCV-NUP98-HOXA9-YFP or MSCV-IRES-GFP and MSCV-NUP98-HOXA9-YFP, and 7,000 to 8,000 cells were transplanted per mouse. For ICN experiments, cells were infected with MSCV-ICN-IRES-CFP and MSCV-BCR-ABL-GFP, MSCV-ICN-IRES-CFP and MSCV-IRES-GFP, or MSCV-BCR-ABL-IRES-GFP and MSCV-IRES-CFP, and 10,000 to 20,000 KLS-derived or 200,000 to 500,000 c-kit+-derived sorted cells were transplanted per mouse. For the TNR mouse model, cells were infected with MSCV-BCR-ABL-IRES-YFP (or CFP) to generate CML or MSCV-BCR-ABL-IRES-YFP (or CFP) and MSCV-NUP98-HOXA9-IRES-NGFR to generate AML. 10,000 to 80,000 unsorted cells were transplanted per mouse. After transplantation, recipient mice were subsequently maintained on antibiotic water (sulfamethoxazole and trimethoprim) and evaluated daily for signs of morbidity, weight loss, failure to thrive, and splenomegaly. Premorbid animals were sacrificed by CO2 asphyxiation followed by cervical dislocation. Subsequently relevant tissues were harvested and analyzed by flow cytometry and histopathology.
# Data shown is representative of two to three independent experiments.
# The impact of Msi2 loss in AML propagation in vivo was also tested. Lin-negative cells from full blown AML were transduced either with an Msi2 shRNA retrovirus or luciferase shRNA virus, and the cells were transplanted into sublethally-irradiated mice. 11 of 13 mice transplanted with control knockdown AML became sick by 1 month post transplant.
# Serial transplants were also done to test the presence of leukemia-initiating ability of control and Msi2 knockdown AML cells from the mice who suffered from leukemia.
# Msi2 transcript = test: Msi2 knockdown measured by realtime RT-PCR; type: cell-based, mouse; details: Lin− cells from NUP98-HOXA9/BCR-ABL blast crisis leukemias; compared with shLuc control
# Experimental: RNA was isolated using RNAqueous-Micro (Ambion), levels were equalized, and RNA was converted to cDNA using Superscript II reverse transcriptase (Invitrogen). Quantitative real time PCRs were performed using an iCycler (BioRad) by mixing cDNAs, iQ SYBR Green Supermix (BioRad) and gene specific primers. Results were normalized to the level of beta-2-microglobulin (B2m). Primer sequences are as follows: Numb-F, […] (SEQ ID NO: 1); Numb-R, […] (SEQ ID NO: 2); Msi1-F, […] (SEQ ID NO: 3); Msi1-R, […] (SEQ ID NO: 4); Msi2-F, […] (SEQ ID NO: 5); Msi2-R, […] (SEQ ID NO: 6); B2m-F, […] (SEQ ID NO: 7); B2m-R, […] (SEQ ID NO: 8).
# as §1
substance,measurement,setting,value
"shMsi: shRNA retrovirus targeting Msi2, SEQ ID NO: 9, 5′-CCCAGATAGCCTTAGAGACTAT-3′",colony growth in vitro,"[1]; established blast crisis CML cells, vs control shRNA",reduced colony growth in vitro
same,reduction in the number of colonies formed,"[1]; methylcellulose media, Msi2 knockdown AML cells",50-70%
same,AML incidence in serial transplants,"blast crisis CML / AML; 3000 or 10,000 cells transplanted",loss in AML incidence
same,mice surviving beyond 1 month,"blast crisis CML / AML; Lin-negative AML cells transduced, sublethally irradiated mice, 11 of 13 control mice sick by 1 month",more than half
same,differentiation of leukemias that occurred,"blast crisis CML / AML; Wright's stain of leukemic cells, primary transplant",more differentiated
same,ability to propagate disease (mice succumbing),"blast crisis CML / AML; mice transplanted with Lin− cells from primary shRNA expressing leukemias, control 87%",25%
same,disease incidence in vivo (survival curve),"blast crisis CML / AML; primary transplant of established blast crisis CML cells, vs shLuc",reduced disease incidence in vivo
same,transplanted leukemic cells in peripheral blood of surviving mice,blast crisis CML / AML; surviving mice,no detectable levels of transplanted leukemic cells
same,reduction in Msi2 transcript levels,Msi2 transcript,75-90%
